Assay results published in PMC6918687, “Pharmacological inhibition of TAK1, with the selective inhibitor takinib, alleviates clinical manifestation of arthritis in CIA mice” (Arthritis Research & Therapy, 2019).
Read-outs that look alike come from different tables or passages of the source.

How the values were obtained:
[1] = Pharmacokinetics of takinib by LC-MS in plasma and tissues; assay type: in vivo, C3-tag mice; conditions: C3 tagged mice; for half-life: C3-tag, mouse, ip
Procedure: C3-tag mice were injected intraperitoneally (i.p.) with 50/75mpk takinib and sacrificed at 0, 1 h, 2 h, 4 h, 8 h, 16 h, and 24 h. At the indicated time points, the heart, spleen, kidney, liver, tumor, blood, plasma, muscle, and lung were harvested. All samples were frozen and stored at − 80 °C. Before quantifying the takinib in serum, a standard curve was constructed using HS-219, a close structural analog of takinib that serves as an internal standard. This internal standard solution was used for tissue homogenization. LC-MS analysis was performed at the Duke Proteomics and Metabolomics Core Facility. The final concentration of takinib in the plasma was calculated per milliliter of plasma.
GraphPad Prism 7 was used for statistical analysis of clinical score comparisons, histological analysis, and plasma concentrations. Two-way ANOVA followed by Dunnett’s multiple comparison test was performed for mean clinical score sum (Fig. 1); weight change over time (Fig. 1); joint score sum for all joints, knees, and forepaw and hind paw (Figs. 2, 3); protein analysis (Figs. 5, 6); and cell survival (Fig. 6g). A linear regression of LC-MS data on takinib was used for PK studies. T½ was determined by non-linear one-phase decay curves. Student T tests were performed for periosteal bone width (Additional file 1: Figure S2) and cell survival (Fig. 6f, g). An alpha of 0.05 was used for all statistical analysis.

CIA mice = assay: CIA mouse model: joint histopathology scores, day 36; assay type: in vivo, DBA/1 mice
Text: After 1–2 days in fixative and 4–5 days in 5% formic acid for decalcification, tissues were trimmed and processed for paraffin embedding. Paws were embedded in paraffin in the frontal plane, and the knees were embedded with the patella facing down. Ankles, if left attached to the hind paw, were also embedded in the frontal plane but may be detached and sectioned in the sagittal plane for special purposes. Left/right pairs were typically embedded in the same block. Sections were cut and stained with toluidine blue.
The paw score criteria were as follows: 0 = Normal. 0.5 = Very minimal, affects only 1 joint or minimal multifocal periarticular infiltration of inflammatory cells. 1 = Minimal infiltration of inflammatory cells in synovium and periarticular tissue of affected joints. 2 = Mild infiltration of inflammatory cells. When referring to paws, generally restricted to affected joints (1–3 affected). 3 = Moderate infiltration with moderate edema. When referring to paws, restricted to affected joints, generally 3–4 joints and the wrist or ankle. 4 = Marked infiltration affecting most areas with marked edema, 1 or 2 unaffected joints may be present. 5 = Severe diffuse infiltration with severe edema affecting all joints (to some extent) and periarticular tissues.
The knee score criteria were as follows: 0 = Normal. 0.5 = Very minimal, affects only one area of the synovium or minimal multifocal periarticular infiltration of inflammatory cells. 1 = Minimal infiltration of inflammatory cells in synovium and periarticular tissue of affected synovial areas. 2 = Mild diffuse infiltration of inflammatory cells. 3 = Moderate diffuse infiltration of inflammatory cells. 4 = Marked diffuse infiltration of inflammatory cells. 5 = Severe diffuse infiltration of inflammatory cells.
The cartilage damage score criteria were as follows: 0 = Normal. 0.5 = Very minimal = Affects marginal zones only of one to several areas (knees) or joints (paws). 1 = Minimal = Generally minimal to mild loss of toluidine blue staining (proteoglycan) with no obvious chondrocyte loss or collagen disruption in affected joints/areas. 2 = Mild = Generally mild loss of toluidine blue staining (proteoglycan) with focal areas of chondrocyte loss and/or collagen disruption in some affected joints/areas. Paws may have one or two digit joints with near total to total loss of cartilage. 3 = Moderate = Generally moderate loss of toluidine blue staining (proteoglycan) with multifocal chondrocyte loss and/or collagen disruption in affected joints/areas. Paws may have three or four joints with near total or total loss. In the knee, some matrix remains on any affected surface with areas of severe matrix loss. 4 = Marked = Marked loss of toluidine blue staining (proteoglycan) with multifocal marked (depth to deep zone or tidemark) chondrocyte loss and/or collagen disruption in most joints with a few unaffected or mildly affected. In the knee, one surface with total to near total cartilage loss. 5 = Severe = Severe diffuse loss of toluidine blue staining (proteoglycan) with severe (depth to tide mark) chondrocyte loss and/or collagen disruption in most or all joints.

TAK1 = conditions: read-out: potency as inhibitor of TAK1; cited from earlier work
RA-FLS cells = assay: Cell viability assay (Cell Titer Glo 2.0) in RA-FLS cells; assay type: cell-based
Procedure: RA-FLS cells were cultured and treated as previously described. Briefly, cells were plated at 80% confluency ~ 10^4 in 96-well plates and treated with either takinib at various concentrations or takinib + TNF (30 ng/mL) for 24 or 48 h and compared to vehicle-treated samples. Cell death was quantified using Cell Titer Glo 2.0 (Promega) according to the manufacturer’s protocol.

For `CCCn1/c(=N/C(=O)c2cccc(C(N)=O)c2)[nH]c2ccccc21` [takinib], the half-life ([1]; heart, 50 mg/kg, 50 mpk i.p., read-out: half-life, heart (converted)) was 16 min, the half-life ([1]; heart, 75 mg/kg, 75 mpk i.p., read-out: half-life, heart (converted)) was 14.4 min and the half-life ([1]; muscle, 50 mg/kg, 50 mpk i.p., read-out: half-life, muscle (converted)) was 8.82 min. The half-life ([1]; muscle, 75 mg/kg, 75 mpk i.p., read-out: half-life, muscle (converted)) was 5.64 min, the half-life ([1]; plasma, 50 mg/kg, 50 mpk i.p., read-out: half-life, plasma (converted)) was 15.4 min and the half-life ([1]; plasma, 75 mg/kg, 50 or 75 mg/kg i.p., read-out: plasma (serum) clearance t½) was 21 min. For the same molecule, the half-life ([1]; plasma, 75 mg/kg, 75 mpk i.p., read-out: half-life, plasma (converted)) was 28.2 min, the half-life ([1]; spleen, 50 mg/kg, 50 mpk i.p., read-out: half-life, spleen (converted)) was 279 min and the half-life ([1]; tumor, 50 mg/kg, 50 mpk i.p., read-out: half-life, tumor (converted)) was 22.1 min. The half-life ([1]; tumor, 75 mg/kg, 75 mpk i.p., read-out: half-life, tumor (converted)) was 9.94 min, the “half-life, spleen” value ([1]; 50 mpk i.p., 50 mg/kg) was 277.6 min and the “reduction of disease burden” value (CIA mice; 50 mg/kg daily (discussion)) was ~ 40%. For the same molecule, the “reduction of overall periosteal bone width vs vehicle” value (CIA mice; 50 mg/kg daily, all joints, p = 0.06) was 35%, the “reduction of overall sum score of knees” value (CIA mice; 50 mg/kg daily, day 36) was ~ 40% and the “cartilage damage score, all joints” value (CIA mice; 50 mg/kg daily, day 36, p = 0.013) was “significantly reduced”. The “inflammation score, all joints” value (CIA mice; 50 mg/kg daily, day 36, p = 0.019) was “significantly reduced”, the “reduction of overall joint pathology (all joints summed histological score) vs vehicle” value (CIA mice; 50 mg/kg daily, day 36, p = 0.02) was ~ 30% and the “average reduction in disease pathology, hind paws and forepaws” value (CIA mice; 50 mg/kg daily, inflammation, pannus, cartilage damage, bone resorption, periosteal bone formation) was 20–30%. For the same molecule, the “histological score of cartilage damage, knees” value (CIA mice; 50 mg/kg daily, p = 0.0042) was “significantly reduced”, the “histological score of inflammation, knees” value (CIA mice; 50 mg/kg daily, p = 0.0044) was “significantly reduced” and the “reduction of bone resorption histological score, knees” value (CIA mice; 50 mg/kg daily, trend) was ~ 40%. The “reduction of pannus histological score, knees” value (CIA mice; 50 mg/kg daily, trend) was ~ 40%, the “overall sum histological score, hind paws” value (CIA mice; 50 mg/kg daily, vs vehicle, p = 0.0078) was “reduced” and the “overall sum histological score, forepaws” value (CIA mice; 50 mg/kg daily, vs vehicle, p = 0.0091) was “reduced”. The IC50 (TAK1) was ~9 nM, the “cell death vs vehicle control” value (RA-FLS cells; 10 μM takinib alone, 48 h, p < 0.002) was “significant amount of cell death” and the “cytotoxicity in the presence of TNF” value (RA-FLS cells; takinib at varying doses + TNF 30 ng/mL, 24 and 48 h) was “Minimal cytotoxicity”.
